Laboratory results from patent publication US20140357512A1, “HISTONE DEACETYLASE (HDAC) BIOMARKERS IN MULTIPLE MYELOMA” (priority 2013, published 2014).

System: human myeloma cell line MM.1S
Assay: SILAC acetylated-lysine peptide profiling, HDAC inhibitor vs DMSO (light/heavy ratio)
Assay type: cell-based
Text: An embodiment of the invention comprises utilizing the SILAC method in order to quantitate changes in protein expression between two or more populations of cells. The SILAC method is a technique based on mass spectrometry that detects differences in protein abundance among samples using non-radioactive isotopic labeling. The SILAC method is known in the art, and described in detail in Ong et al., “Stable Isotope Labeling by Amino Acids in Cell Culture, SILAC, as a Simple and Accurate Approach to Expression Proteomics”, Molecular & Cellular Proteomics, vol. 1, pp. 376-386 (2002), which is incorporated herein by reference in its entirety.
Briefly, the SILAC method involves growing two populations of cells in cell culture. The first population of cells is grown in growth media containing normal amino acids (“normal media”). The second population of cells is grown in media lacking a standard essential amino acid (such as lysine), but is then supplemented with a non-radioactive, isotopically labeled form of that essential amino acid (such as lysine labeled with ^13C atoms, rather than normal ^12C atoms), which is called “heavy media”. When the two populations of cells are each growing in the medium, they incorporate the amino acids into all of their proteins. The growth of cells maintained in the heavy media is no different from that in normal media. All peptides containing the heavy amino acids are heavier than their normal counterparts. The cells from each of the two populations of cells are lysed. The lysates from each of the two cell populations are then combined. The combined cell lysates are then analyzed by mass spectrometry. Pairs of chemically identical peptides of different stable isotope composition can be differentiated in a mass spectrometer due to their difference in mass. The ratio of peak intensities in the mass spectrum for such peptide pairs reflects the abundance ratio for the two proteins.
This example describes SILAC studies that were performed to compare the effects of three different HDAC inhibitors (Compound A, Compound B, and tubastatin A) to a control on a human multiple myeloma cell line. The HDAC inhibitors were also compared amongst themselves to determine differences in their effects.
A human myeloma cell line MM.1S was grown using either ^12C (light) or ^13C (heavy) lysine containing culture medium. The “heavy” cells were treated with DMSO as the control, and the “light” cells were treated with a single HDAC inhibitor at 37° C. for 6 hours. The heavy and light cells were lysed, and the lysates were mixed in 1:1 ratio and digested with the protease trypsin. The acetylated lysine containing peptides (due to the action of the HDAC inhibitor) in the digested peptide pool were captured by a non-specific anti-acetylated lysine antibody cocktail (the antibodies identify both light and heavy acetylated peptides), and subjected to mass spectrometry analysis in order to identify thousands of individual peptides.
Thousands of peptides were identified in pairs (^12C and ^13C) due to their known mass differences. The amino acid sequence and quantitative ratio (Light/Heavy) of a given peptide in two differentially treated cell lysates were then determined and annotated with their possible protein (gene) sources.
As stated above, three HDAC inhibitors (Compound A, Compound B, and Tubastatin A) were used. Thus, the SILAC method was performed three times, with a different HDAC inhibitor compared to a control each time. Accordingly, there are three pairs of quantitative data in the table below, i.e., Compound A:DMSO, Compound B:DMSO, and Tubastatin A:DMSO. A cut-off of 1.30 fold of change (increase or decrease) was then used to determine “changed” or “+” in the table, and any peptides with a fold of change less than 1.3 fold were determined to be “unchanged” or “0” in the table. Those peptides that were not identified were marked as “NA” in the table. […]

## O=C(CCCCCCNC(=O)c1cnc(N(c2ccccc2)c2ccccc2)nc1)NO [Compound A, 2-(diphenylamino)-N-(7-(hydroxyamino)-7-oxoheptyl)pyrimidine-5-carboxamide]
SNORD21, RPL5 [220], log 2 scale, drug vs DMSO
  L/H ratio of acetylated peptide […](ac)K (SEQ ID NO: 105): 0.00
SNORD43, RPL3 [115], log 2 scale, drug vs DMSO
  L/H ratio of acetylated peptide […](ac)R (SEQ ID NO: 106): 0.00
SRSF1 [38], log 2 scale, drug vs DMSO
  L/H ratio of acetylated peptide […](ac)YGAIR (SEQ ID NO: 107): 0.00
STT3B [10], log 2 scale, drug vs DMSO
  L/H ratio of acetylated peptide (ac)AEPSAPESK(ac)HK (SEQ ID NO: 108): 0.00
SYAEELAK(ac)HGMK (SEQ ID NO: 481), Estradiol 17-beta-dehydrogenase 12 [72], HSD17B12
  L/H ratio of acetylated peptide: 0.39 log 2
Selenoprotein H [20], gene C11orf31, drug:DMSO
  light to heavy ratio (L/H ratio), log 2 scale, acetylated peptide […](ac)R (SEQ ID NO: 781): 1.00
Serine hydroxymethyltransferase mitochondrial [469], gene SHMT2, inhibitor:DMSO
  light to heavy ratio (L/H ratio) of acetylated peptide LQDFK(ac)SFLLK (SEQ ID NO: 582): 0.43 log 2
Serine hydroxymethyltransferase mitochondrial [474], gene SHMT2, inhibitor:DMSO
  light to heavy ratio (L/H ratio) of acetylated peptide SFLLK(ac)DSETSQR (SEQ ID NO: 567): 0.41 log 2
Serine/arginine-rich splicing factor 2 [36], gene SRSF2, inhibitor:DMSO
  light to heavy ratio (L/H ratio) of acetylated peptide VFEK(ac)YGR (SEQ ID NO: 568): 0.41 log 2
Signal peptidase complex subunit 2 [38], gene LOC653566, SPCS2, inhibitor:DMSO
  light to heavy ratio (L/H ratio) of acetylated peptide SGLLDK(ac)WK (SEQ ID NO: 602): 0.46 log 2
Splicing factor U2AF 35 kDa subunit [13], U2AF1, drug:DMSO
  light to heavy ratio (L/H ratio) of acetylated peptide (ac)[…](ac)DK (SEQ ID NO: 283): 0.60 log 2
Stress-70 protein mitochondrial [135], gene HSPA9, inhibitor:DMSO
  light to heavy ratio (L/H ratio) of acetylated peptide YDDPEVQK(ac)DIK (SEQ ID NO: 578): 0.43 log 2
Stress-induced-phosphoprotein 1 [325], gene STIP1, inhibitor:DMSO
  light to heavy ratio (L/H ratio) of acetylated peptide […](ac)SLAEHR (SEQ ID NO: 534): −0.40 log 2
TLQYK(ac)[…] (SEQ ID NO: 252), 40S ribosomal protein S16 [50], RPS16
  light to heavy ratio (L/H ratio) of acetylated peptide, log 2 scale: −0.39
TUBB2C [58], log 2 scale, drug vs DMSO
  L/H ratio of acetylated peptide […](ac)YVPR (SEQ ID NO: 109): 0.00
TUFM [91], log 2 scale, drug vs DMSO
  L/H ratio of acetylated peptide ILAEGGGAK(ac)FK (SEQ ID NO: 110): 0.00
TXN [8], log 2 scale, drug vs DMSO
  L/H ratio of acetylated peptide QIESK(ac)[…] (SEQ ID NO: 111): 0.00
TXNDC5, MUTED, MUTED-TXNDC5 [118], log 2 scale, drug vs DMSO
  L/H ratio of acetylated peptide VYVAK(ac)[…] (SEQ ID NO: 113): 0.00
TXNDC5, MUTED, MUTED-TXNDC5 [150], log 2 scale, drug vs DMSO
  L/H ratio of acetylated peptide […](ac)YQGPR (SEQ ID NO: 112): 0.00
Talin-1 [334], gene TLN1, drug:DMSO
  light to heavy ratio (L/H ratio), log 2 scale, acetylated peptide LLGITK(ac)ECVMR (SEQ ID NO: 815): 1.00
Thioredoxin domain-containing protein 5 [390], TXNDC5, MUTED, MUTED-TXNDC5, drug:DMSO
  light to heavy ratio (L/H ratio) of acetylated peptide NICSK(ac)YSVR (SEQ ID NO: 256): 0.39 log 2
Transitional endoplasmic reticulum ATPase [109], gene VCP, drug:DMSO
  light to heavy ratio (L/H ratio), log 2 scale, acetylated peptide […](ac)YGK (SEQ ID NO: 817): 1.00
Translocation protein SEC62 [60], gene SEC62, inhibitor:DMSO
  light to heavy ratio (L/H ratio) of acetylated peptide AVDCLLDSK(ac)WAK (SEQ ID NO: 518): −0.51 log 2
Translocon-associated protein subunit gamma [81], gene SSR3, inhibitor:DMSO
  light to heavy ratio (L/H ratio) of acetylated peptide NVK(ac)FVLK (SEQ ID NO: 609): 0.47 log 2
Transmembrane protein 43 [159], gene TMEM43, inhibitor:DMSO
  light to heavy ratio (L/H ratio) of acetylated peptide SEIINSK(ac)NFDR (SEQ ID NO: 525): −0.45 log 2
Tricarboxylate transport protein mitochondrial [149], gene SLC25A1, inhibitor:DMSO
  light to heavy ratio (L/H ratio) of acetylated peptide VK(ac)[…] (SEQ ID NO: 562): 0.40 log 2
Trifunctional enzyme subunit alpha mitochondrial [337], gene HADHA, drug:DMSO
  light to heavy ratio (L/H ratio), log 2 scale, acetylated peptide ESK(ac)[…] (SEQ ID NO: 787): 1.00
Trifunctional enzyme subunit alpha mitochondrial [359], gene HADHA, drug:DMSO
  light to heavy ratio (L/H ratio), log 2 scale, acetylated peptide FGAPQK(ac)DVK (SEQ ID NO: 788): 1.00
Trifunctional enzyme subunit alpha mitochondrial [569], gene HADHA, drug:DMSO
  light to heavy ratio (L/H ratio), log 2 scale, acetylated peptide ILQEGVDPK(ac)K (SEQ ID NO: 789): 1.00
Trifunctional enzyme subunit beta mitochondrial [272], HADHB, drug:DMSO
  light to heavy ratio (L/H ratio) of acetylated peptide VPGK(ac)DTVTK (SEQ ID NO: 308): 1.00 log 2
Tubulin polymerization-promoting protein [187:189], gene TPPP, drug:DMSO
  light to heavy ratio (L/H ratio), log 2 scale, acetylated peptide GK(ac)GK(ac)AGR (SEQ ID NO: 816): 1.00
U2AF2 [462], log 2 scale, drug vs DMSO
  L/H ratio of acetylated peptide VVVTK(ac)YCDPDSYHR (SEQ ID NO: 114): 0.00
Uncharacterized protein CXorf59 [13], gene CXorf59, drug:DMSO
  light to heavy ratio (L/H ratio), log 2 scale, acetylated peptide QNIILK(ac)NDK (SEQ ID NO: 784): 1.00
VAILK(ac)ANLR (SEQ ID NO: 488), Transitional endoplasmic reticulum ATPase [658], VCP
  L/H ratio of acetylated peptide: 0.80 log 2
VDAC1 [224], log 2 scale, drug vs DMSO
  L/H ratio of acetylated peptide FGIAAK(ac)[…] (SEQ ID NO: 115): 0.00
VDAC2 [63], log 2 scale, drug vs DMSO
  L/H ratio of acetylated peptide YK(ac)[…] (SEQ ID NO: 116): 0.00
